The values below come from patent US20110165173A1, “THERAPEUTIC AGENT AND DETECTION REAGENT FOR ARTERIOSCLEROTIC DISEASE WHICH TARGETS FOR SALUSIN” (PROTEINEXPRESS CO., LTD., priority 2007, published 2011).

In experiment [1] the test system is ACAT-1 mRNA expression. As to the kind of experiment: ACAT-1 mRNA expression in human monocyte-derived macrophages (real time RT-PCR). The following applies: 0.6 nM during 7-day culture. The class given is cell-based. The method, then: RNA extraction was performed using a TRIzol reagent (LIFE TECHNOLOGIES).
Cells were cultured for 7 days in a medium and then the medium was removed. The cells were washed 3 times with PBS. PBS was sufficiently removed therefrom and TRIzol (1 mL) was added thereto for cell lysis. The cell extraction solution was pippeted in and out 5 times and then transferred to a new Eppendorf tube. Then, the tube was left at room temperature for 5 minutes. Chloroform (200 μL) was added thereto, followed by strong shaking for 15 seconds. The tube was further left for 2 to 3 minutes and centrifuged at 12,000 rpm for 15 minutes (Himac CF15D2 high-speed micro refrigerated centrifuge; Hitach, Ltd.). The top layer was transferred to a new Eppendorf tube and isopropanol (500 μL) was added thereto, followed by end-over-end mixing. […] The concentration of the thus obtained RNA solution was obtained by absorbance determination at 260 nm. […]
Next, the RNA expression of ACAT-1 mRNA was analyzed by the real time RT-PCR method.
Primer sequences were determined Primer Express Version 1.0 (PE Biosystems) with the use of the respective human mRNA sequences shown below. […]
Real time PCR was performed to quantify the obtained cDNA by the GeneAmp 5700 Sequence Detection System (Applied Biosystems Japan) with the use of qPCR MasterMix SYBR Greenl (Eurogentec). […]
(In general: In qPCR the cycle at which signal appears reflects the starting amount.)

Experiment [2] concerns apoE-deficient mice. The experiment is described as follows: Arteriosclerotic lesions of aorta in apoE-deficient mice under continuous subcutaneous administration (oil red O staining). The class given is in vivo. The note with it: 0.6 nmol/kg/h continuous subcutaneous. The method, then: Effects of continuous administration of salusin-α and salusin-β on arteriosclerosis were examined with the use of apoE-deficient mice as arteriosclerosis animal models. Herein, antiserum effects of salusin-α or salusin-β were also examined. In addition to examination of arteriosclerotic lesions, foaming of macrophages, which is important for formation of arteriosclerosis primary lesions, was focused on and cholesterol ester accumulation caused by oxidized LDL was assayed. Expression analysis was carried out for scavenger receptors (CD36 and SR-A) capable of recognizing oxidized LDL, an intracellular cholesterol esterification enzyme (acyl-CoA) (cholesterol acyltransferase 1 (ACAT1)), and ATP-binding cassette transporter A1 (ABCA1), ABCG1, and SR-BI, which are involved in the mechanism of extracellular transportation of excessive intracellular free cholesterol (cholesterol efflux).
The above animal experiments were carried out in accordance with the experimental practice guidelines established by Showa University (Japan). All the apoE-deficient mice used for this study were purchased from the Jackson Laboratory (Bar Harbor, Me., U.S.A.).
(§1) 13-week-old male apoE-deficient mice (72 mice) were divided into the following 6 groups: (i) physiological salt saline (control); (ii) salusin-α (0.6 nmol/kg/h); (iii) salusin-β (0.6 nmol/kg/h); (iv) salusin-α (0.6 nmol/kg/h)+anti-salusin-α serum (1.4 μg/kg/h); (v) salusin-β (0.6 nmol/kg/h)+anti-salusin-β serum (1.4 μg/kg/h); and (vi) anti-salusin-β serum (1.4 μg/kg/h). The mice were subjected to continuous subcutaneous administration with the use of an osmotic mini-pump for 4 to 8 weeks. The osmotic mini-pump and the solution contained therein were changed every week.
Mice ingesting a normal diet were subjected to experiments. The following parameters were assayed.
Each collected aorta was cut in the longitudinal direction, followed by oil red O staining for examination of the surface area of each atherosclerosis lesion with lipid pigmentation. Adobe Photoshop (Adobe System Inc., San Jose, Calif., U.S.A.) was used for identification of arteriosclerotic lesions, followed by analysis using NIH Scion Image (Scion Corp., Frederick, Md., U.S.A.) for quantification of the surface area of each lesion. In addition, cross-sections of the vicinity of the aorta (immediately below the aortic valve) were prepared, followed by oil red O staining for detailed analysis of arteriosclerotic lesions.

For experiment [3], the system named is ACAT1. As to the kind of experiment: ACAT1 expression by macrophages of treated apoE-deficient mice (Western blotting). The class given is in vivo. The note with it: four weeks, P<0.05. As to the method:
as §1
Macrophages were collected as in the experiment in (1), and the protein expression of the gene involved in foaming of macrophages (i.e., scavenger receptors CD36 and SR-A capable of recognizing oxidized LDL, intracellular cholesterol esterification enzyme ACAT1, and ABCA1, ABCG1, and SR-BI, which are involved in cholesterol efflux) was analyzed by Western blotting. For the internal standard of the macrophage function, β-actin expression was also examined. For quantification of the band concentration, Analyzer (ATTO Corporation, Tokyo) was used.
On the technique in general: A western blot detects proteins with antibodies after separation by electrophoresis.

Take “salusin-β: peptide (SEQ ID NO: 3) comprising 20 amino acid residues, generated by processing from preprosalusin (AIFIFIRWLLKLGHHGRAPP; listed as Homo sapiens) [reference compound]”: in experiment [1], the “ACAT-1 mRNA expression level relative to control” value is listed as 1.6 times. The “proximal aorta cross-sections, oil red O staining, compared with control group” value in experiment [2] (four weeks) was “formation of atheroma stained red with oil red O and thickening of the blood vessel wall were observed”. Also, the “mean arteriosclerotic lesion surface area of the aortic arch relative to control group” value in experiment [2] (four weeks, P<0.005) is listed as “approximately 2.5 times”. Moreover, the “ACAT1 protein expression relative to control level” value in experiment [3] (0.6 nmol/kg/h, range given jointly for CD36, SR-A, ACAT1) is 1.5 to 2.8 times.
For “salusin-α: peptide (SEQ ID NO: 1) comprising 28 amino acid residues, generated by processing from preprosalusin (SGALPPAPAAPRPALRAQRAGPAGPGAK; listed as Homo sapiens)”, the “ACAT-1 mRNA expression level, percent of that of the control” value in experiment [1] is given as 80%. Also, in experiment [2] (eight weeks), the “arteriosclerotic lesion surface area” value is given as “reduced to less than half” and the plaque formation result is on record as “obvious plaque formation was not observed”. In addition, the “ACAT1 protein expression relative to initial level” value in experiment [3] (salusin-α 0.6 nmol/kg/h) is recorded as “approximately half”.
